Measurements as given in patent US10442836B2, “1-(chloromethyl)-2,3-dihydro-1H-benzo[E]indole dimer antibody-drug conjugate compounds, and methods of use and treatment” (priority 2013, dated 2019).

B1: ADC 125: Thio Hu Anti-CD33 15G15.33 HC A118C-MC-MMED-(CBI dimer phos); linker-CBI intermediate 57 (conjugate)
VH: QVQLVQSGAEVKKPGSSVKVSCKASGGIFSNHAISWVRQAPGQGLEWMGGIIPIFGTANYAQKFQGRVTITADESTSTAFMELSSLRSEDTAVYYCAREWADVFDIWGQGTMVTVSS
VL: EIVLTQSPLSLPVTPGEPASISCRSSQSLLHSNGYNYLDWYLQKPGQSPQLLIYLGVNSVSGVPDRFSGSGSGTDFTLKISRVEAEDVGVYYCMQALQTPWTFGQGTKVEIK
B2: ADC 127: Thio Hu Anti-CD33 15G15.33 HC A118C-MC-ED-(CBI dimer DVB diphos); linker-CBI intermediate 66 (conjugate)
VH: B1 VH
VL: B1 VL
B3: ADC 129: Thio Hu Anti-CD33 15G15.33 HC A118C-MC-ED-(CBI dimer DVB phos); linker-CBI intermediate 68 (conjugate)
VH: B1 VH
VL: B1 VL

Tests used:
EOL-1 cells = assay: EOL-1 in vitro cell viability (CellTiter-Glo cell proliferation assay); format: cell-based, human; details: EOL-1 in vitro cell viability at 3 days versus concentrations (μg/ml)
Description: The CellTiter-Glo® Luminescent Cell Viability Assay is a commercially available (Promega Corp., Madison, Wis.), homogeneous assay method based on the recombinant expression of Coleoptera luciferase (U.S. Pat. Nos. 5,583,024; 5,674,713; 5,700,670). This cell proliferation assay determines the number of viable cells in culture based on quantitation of the ATP present, an indicator of metabolically active cells (Crouch et al (1993) J. Immunol. Meth. 160:81-88; U.S. Pat. No. 6,602,677). The CellTiter-Glo® Assay was conducted in 96 well format, making it amenable to automated high-throughput screening (HTS) (Cree et al (1995) AntiCancer Drugs 6:398-404). The homogeneous assay procedure involves adding the single reagent (CellTiter-Glo® Reagent) directly to cells cultured in serum-supplemented medium. Cell washing, removal of medium and multiple pipetting steps are not required. The system detects as few as 15 cells/well in a 384-well format in 10 minutes after adding reagent and mixing. The cells may be treated continuously with ADC, or they may be treated and separated from ADC.
The homogeneous “add-mix-measure” format results in cell lysis and generation of a luminescent signal proportional to the amount of ATP present. The amount of ATP is directly proportional to the number of cells present in culture. […] Viable cells are reflected in relative luminescence units (RLU). […]
Efficacy of ADC was measured by a cell proliferation assay employing the following protocol ([…] GLO™ Luminescent Cell Viability Assay, Promega Corp. Technical Bulletin TB288; Mendoza et al (2002) Cancer Res. 62:5485-5488): • 1. […] The plate was incubated at room temperature for 10 minutes to stabilize the luminescence signal. • 8. Luminescence was recorded and reported in graphs as RLU=relative luminescence units. • Data are plotted as the mean of luminescence for each set of replicates, with standard deviation error bars. […]

Molecule	melting point	cell-killing activity (EOL-1 cells)
CN(CCN(C)C(=O)Oc1cc2c(c3ccccc13)[C@H](CCl)CN2C(=O)CCCC(=O)N1C[C@@H](CCl)c2c1cc(O)c1ccccc21)C(=O)CBr	167 to 170 °C	–
CN(CCN(C)C(=O)Oc1cc2c(c3ccccc13)[C@H](CCl)CN2C(=O)CCCC(=O)N1C[C@@H](CCl)c2c1cc(OP(=O)(O)O)c1ccccc21)C(=O)CCCCCN1C(=O)C=CC1=O	191 to 194 °C (dec.)	–
CN1CCN(C(=O)Oc2cc3c(c4ccccc24)C(CCl)CN3C(=O)/C=C/c2ccc(/C=C/C(=O)N3C[C@@H](CCl)c4c3cc(OC(=O)N3CCN(C)CC3)c3ccccc43)cc2NC(=O)CCNC(=O)CCCCCN2C(=O)C=CC2=O)CC1 (stereo partly drawn)	268 °C (dec.)	–
B1	–	modest dose response cell-killing activity
B2	–	potent, dose responsive cell-killing activity
B3	–	potent, dose responsive cell-killing activity
